Source: patent US20250114466A1, “ANTIFOLATE LINKER-DRUGS AND ANTIBODY-DRUG CONJUGATES” (BYONDIS B.V., priority 2021, published 2025)

Legend:
Type in all cases: cell-based
Human tumor cell lines = assay: In vitro cell viability assays, free antifolate drugs, overall comparison; details: for antifolate activity compared with talotrexin: Tables 1a-1d
Protocol: Human tumor cell lines SK-BR-3, SW-620, A-549, BT-474, Jurkat Clone E6-1, AU-565, and SK-OV-3 were obtained from American Type Culture Collection (Rockville, MD, USA). FaDu, BxPC-3, HeLa, MV4-11, and RAJI cell lines were obtained from Deutsche Sammlung von Mikroorganismen und Zellkulturen ([…], Germany). Jurkat NucLight Red cells were obtained from Essen BioScience Inc. (Ann Arbor, MI, USA). SK-BR-3 and SK-OV-3 cells were cultured in McCoys 5A medium (Lonza; Walkersville, MD, USA) supplemented with 10% v/w Fetal Bovine Serum (FBS), Heat-inactivated (HI) (Gibco-Life Technologies; Carlsbad, CA) and 80 U/mL Pen/Strep (Gibco-Life Technologies), at 37° C. in a humidified incubator under 5% CO2 atmosphere. SW-620 cells were similarly maintained in RPMI 1640 medium (Lonza), containing 10% v/w FBS HI and 80 U/mL Pen/Strep. A-549 cells were similarly maintained in F-12K Nutrient Mixture (1×) (Gibco-Life Technologies) media supplemented with 80 U/mL Pen/Strep and 5% v/w FBS, which was Qualified (Q) (Gibco-Life Technologies). BT-474 and AU-565 cells were similarly maintained in RPMI 1640 medium (Lonza), containing 10% v/w FBS, which was Qualified (Q) (Gibco-Life Technologies), and 80 U/mL Pen/Strep. Jurkat Clone E6-1, BxPC-3, HeLa, MV4-11, and RAJI cells were similarly maintained in RPMI 1640 medium (Lonza), containing 10% v/w FBS HI and 80 U/mL Pen/Strep. Jurkat NucLight Red cells were similarly maintained in RPMI 1640 medium (Lonza), containing 10% v/w FBS HI, 80 U/mL Pen/Strep and 0.5 μg/mL Puromycin (Gibco-Life Technologies). FaDu cells were cultured in EMEM medium (Lonza) supplemented with 10% v/w FBS HI (Gibco-Life Technologies), 1× GlutaMAX (Gibco-Life Technologies), and 80 U/mL Pen/Strep (Gibco-Life Technologies), at 37° C. in a humidified incubator under 5% CO2 atmosphere.
Cells in complete growth medium were plated in 96-well plates (90 μL/well) and incubated at 37° C., 5% CO2 at the following cell densities: 6500 SK-BR-3, 4000 SW-620, 2500 A-549, 10000 BT-474, 3000 Jurkat Clone E6-1, 5000 AU-565, 1250 FaDu, 1250 BxPC-3, 1000 HeLa, 7500 MV4-11, 1000 RAJI, 3000 Jurkat NucLight Red, and 4000 SK-OV-3 cells per well. After an overnight incubation, 10 serial log 10 dilutions of the free drugs were made in DMSO (Sigma-Aldrich). These free drug dose-response curves were 10-times further diluted in complete growth medium. For the ADCs according to the invention 10 serial log 10 dilutions were made in complete growth medium. 10 μL of a composition comprising a free drug or an ADC according to the invention was added to the assay plate (final DMSO content for free drugs was 1%). […] Cell viability was assessed after 6 days using a luminescent assay kit (CellTiter-Glo™ (CTG), Promega Corporation) according to the manufacturer's instructions. Percentage cell survival was calculated by dividing the measured luminescence for each free drug or ADC according to the concentration with the average mean of untreated cells (1% or 0.1% DMSO control (for free drugs) or 100% complete growth medium (for ADCs)) multiplied by 100.
Curves were fitted by non-linear regression using the sigmoidal dose-response equation with variable slope (four parameters) using curve-fitting software (GraphPad Prism, version 9.4.0 for Windows, GraphPad, San Diego, CA or Electronic Laboratory Notebook (ELN) add-in BioAssay, version 19.1.0.0218, Perkin Elmer, Waltham, MA). Relative IC50 values were calculated as the concentration that gives a response halfway between bottom and top of the curve, when using a 4-parameter logistic fit. Data were reported as mean IC50 value of at least one experiment performed in duplicate.

SW-620 cells = assay: In vitro cell viability assay (CellTiter-Glo, 6 days), SW-620; details: Homo sapiens, SW-620, 144 h, free antifolate drug, Table 1a
Protocol: (§1) FaDu, BxPC-3, HeLa, MV4-11, and RAJI cell lines were obtained from Deutsche Sammlung von Mikroorganismen und Zellkulturen ([…], Germany). Jurkat NucLight Red cells were obtained from Essen BioScience Inc. (Ann Arbor, MI, USA). SK-BR-3 and SK-OV-3 cells were cultured in McCoys 5A medium (Lonza; Walkersville, MD, USA) supplemented with 10% v/w Fetal Bovine Serum (FBS), Heat-inactivated (HI) (Gibco-Life Technologies; Carlsbad, CA) and 80 U/mL Pen/Strep (Gibco-Life Technologies), at 37° C. in a humidified incubator under 5% CO2 atmosphere. SW-620 cells were similarly maintained in RPMI 1640 medium (Lonza), containing 10% v/w FBS HI and 80 U/mL Pen/Strep. […]
(§2) After an overnight incubation, 10 serial log 10 dilutions of the free drugs were made in DMSO (Sigma-Aldrich). […] Cell viability was assessed after 6 days using a luminescent assay kit (CellTiter-Glo™ (CTG), Promega Corporation) according to the manufacturer's instructions. Percentage cell survival was calculated by dividing the measured luminescence for each free drug or ADC according to the concentration with the average mean of untreated cells (1% or 0.1% DMSO control (for free drugs) or 100% complete growth medium (for ADCs)) multiplied by 100. […]

SK-BR-3 cells = assay: In vitro cell viability assay (CellTiter-Glo, 6 days), SK-BR-3; details: Homo sapiens, SK-BR-3, 144 h, free antifolate drug, Table 1a
Protocol: as §1, §2

A-549 cells = assay: In vitro cell viability assay (CellTiter-Glo, 6 days), A-549; details: Homo sapiens, A549, 144 h, free antifolate drug, Table 1a
Protocol: Human tumor cell lines SK-BR-3, SW-620, A-549, BT-474, Jurkat Clone E6-1, AU-565, and SK-OV-3 were obtained from American Type Culture Collection (Rockville, MD, USA). FaDu, BxPC-3, HeLa, MV4-11, and RAJI cell lines were obtained from Deutsche Sammlung von Mikroorganismen und Zellkulturen ([…], Germany). Jurkat NucLight Red cells were obtained from Essen BioScience Inc. (Ann Arbor, MI, USA). […]
Cells in complete growth medium were plated in 96-well plates (90 μL/well) and incubated at 37° C., 5% CO2 at the following cell densities: 6500 SK-BR-3, 4000 SW-620, 2500 A-549, 10000 BT-474, 3000 Jurkat Clone E6-1, 5000 AU-565, 1250 FaDu, 1250 BxPC-3, 1000 HeLa, 7500 MV4-11, 1000 RAJI, 3000 Jurkat NucLight Red, and 4000 SK-OV-3 cells per well. […] Cell viability was assessed after 6 days using a luminescent assay kit (CellTiter-Glo™ (CTG), Promega Corporation) according to the manufacturer's instructions. Percentage cell survival was calculated by dividing the measured luminescence for each free drug or ADC according to the concentration with the average mean of untreated cells (1% or 0.1% DMSO control (for free drugs) or 100% complete growth medium (for ADCs)) multiplied by 100. […]

| Structure (SMILES) | antifolate activity compared with talotrexin (Human tumor cell lines) | other results |
| --- | --- | --- |
| Nc1ccc(C(=O)NCCC[C@H](NC(=O)c2ccc(CCc3ccc4nc(N)nc(N)c4c3)cc2)C(=O)O)cc1 [XJ4, (S)-5-(4-Aminobenzamido)-2-(4-(2-(2,4-diaminoquinazolin-6-yl)ethyl)benzamido)pentanoic acid] | less active than talotrexin |  |
| Nc1ccc(C(=O)NCCC[C@H](NC(=O)c2ccc(NCc3ccc4nc(N)nc(N)c4c3Cl)cc2)C(=O)O)c(-c2nnn[nH]2)c1 [XT110, (S)-5-(4-Amino-2-(1H-tetrazol-5-yl)benzamido)-2-(4-(((2,4-diamino-5-chloroquinazolin-6-yl)methyl)amino)benzamido)pentanoic acid] |  | antifolate activity compared with XX35 (Human tumor cell lines; 5-chloroquinazoline-2,4-diamine instead of pteridine-2,4-diamine): strongly increased the antifolate activity |
| CN(Cc1cnc2nc(N)nc(N)c2n1)c1ccc(C(=O)N[C@@H](CCCNC(=O)c2ccc(N)cc2)C(=O)O)cc1 [XX12, (S)-5-(4-aminobenzamido)-2-(4-(((2,4-diaminopteridin-6-yl)methyl)(methyl)amino)benzamido)pentanoic acid] | less active than talotrexin |  |
| Nc1ccc(C(=O)NCCC[C@H](NC(=O)c2ccc(CCc3cnc4nc(N)nc(N)c4n3)cc2)C(=O)O)cc1 [XX7, (S)-5-(4-Aminobenzamido)-2-(4-(2-(2,4-diaminopteridin-6-yl)ethyl)benzamido) pentanoic acid] | less active than talotrexin |  |
| Nc1nc(N)c2nc(CNc3ccc(C(=O)N[C@@H](CCCNC(=O)c4ccccc4C(=O)O)C(=O)O)cc3)cnc2n1 [Talotrexin] |  | IC50 (SW-620 cells): 1.74 nM; IC50 (SK-BR-3 cells): 1.83 nM; IC50 (A-549 cells): 1.7 nM |
| [N-]=[N+]=Nc1ccc(C(=O)NCCC[C@H](NC(=O)c2ccc(CCc3cnc4nc(N)nc(N)c4n3)cc2)C(=O)O)cc1 [XX5, (S)-5-(4-Azidobenzamido)-2-(4-(2-(2,4-diaminopteridin-6-yl)ethyl)benzamido) pentanoic acid] | less active than talotrexin |  |
| Nc1ccc(C(=O)NCCC[C@H](NC(=O)c2ccc(NCc3cnc4nc(N)nc(N)c4n3)cc2)C(=O)O)cc1 [XT35, (S)-5-(4-Aminobenzamido)-2-(4-(((2,4-diaminopteridin-6-yl)methyl)amino)benzamido) pentanoic acid] | less active than talotrexin |  |
